Results from patent US9961899B2, “Nematicidal aqueous suspension concentrate compositions” (Monsanto Technology LLC, priority 2012, dated 2018).

Assays:
Format in all cases: physicochemical
[1] = Grinding analysis of polymorphs (ball mill, XRD); conditions: ball mill 2 minutes at 4800 oscillations per minute
Experimental: Batches of 3-phenyl-5-(thiophen-2-yl)-1,2,4-oxadiazole polymorphic Forms I and II were ground using a CRESCENT WIG-L-BUG ball mill for 2 minutes at 4800 oscillations per minute (3.2 m/s) in two separate experiments. […] The Form II used in this experiment was obtained by recrystallization from the melt of Form I, as described in Example 14, above, […]

[2] = Mechanical pressure analysis of polymorphs (CARVER press, XRD); conditions: approximately 15,000 psi for approximately 20 seconds
Experimental: Batches of 3-phenyl-5-(thiophen-2-yl)-1,2,4-oxadiazole polymorphic Forms I and II were placed in a CARVER press and compressed at approximately 15,000 psi for approximately 20 seconds in two separate experiments. XRD analysis was performed on the samples. The resulting XRD pattern matched the starting material in both experiments, as shown in FIGS. 5A and 5B for Forms I and II, respectively. […] The Form II used in this experiment was obtained by recrystallization from the melt of Form I, as described in Example 14, above.

[3] = Storage stability of polymorphs (humidity chambers / ambient, XRD)
Text: To determine the storage stability and/or hydrate formation of 3-phenyl-5-(thiophen-2-yl)-1,2,4-oxadiazole Form I material during storage at ambient conditions, samples were monitored in two static humidity chambers. […] Solutions of saturated potassium chloride (84% RH) and sodium chloride (75% RH) salts at ambient temperature were used.

[4] = Estimation of polymorph transition temperature from DSC data; conditions: calculated from DSC thermal data
Experimental: Polymorphic Forms I and II of 3-phenyl-5-(thiophen-2-yl)-1,2,4-oxadiazole, as well as a 50/50 mixture thereof, were analyzed by DSC at a slow heating rate of 2° C. per minute, with similar sample sizes. […] Form II has a higher melting temperature and a lower enthalpy of fusion. […] FIGS. 9A through 9C show the relevant DSC thermograms for Form I, Form II, and a mixture of Forms I and II, respectively.
The thermal data using the procedure set forth above was used to calculate an approximate value for the transition temperature of conversion of Forms I and II, resulting in an estimated transition temperature value of 102° C.

| Structure (SMILES) | polymorphic transformation on grinding (XRD) [1] | polymorphic change under mechanical pressure (XRD) [2] | storage stability / hydrate formation (XRD) ([3]; 75 and 84% RH, ambient temperature, 4 weeks) | storage stability (XRD) ([3]; scintillation vial, ambient conditions, approximately 6 days) | transition temperature between Forms I and II [4] |
| --- | --- | --- | --- | --- | --- |
| c1ccc(-c2noc(-c3cccs3)n2)cc1 [Form I, 3-phenyl-5-(thiophen-2-yl)-1,2,4-oxadiazole] | no transformation was observed | did not reveal any changes in the polymorphic form | does not form a hydrate and appears to be thermodynamically stable over time |  |  |
| c1ccc(-c2noc(-c3cccs3)n2)cc1 [Form II, 3-phenyl-5-(thiophen-2-yl)-1,2,4-oxadiazole] | transformed to Form I | did not reveal any changes in the polymorphic form |  | showed signs of transformation to Form I |  |
| c1ccc(-c2noc(-c3cccs3)n2)cc1 [Ia-i, 3-phenyl-5-(thiophen-2-yl)-1,2,4-oxadiazole] |  |  |  |  | approximately 102 °C |
